Type in all cases: functional
For assay [1], the species on record is Rattus norvegicus. In words: Compound was tested for hepatoprotective activity against D-GalN-induced cytotoxicity in primary cultured rat hepatocytes at 30 uM dose. The following applies: Hepatocyte.
The species named for assay [2] is Rattus norvegicus. In words: Compound was tested for hepatoprotective activity against D-GalN-induced cytotoxicity in primary cultured rat hepatocytes at 10 uM dose. The conditions noted are these: Hepatocyte.
For assay [3], the species on record is Rattus norvegicus. In words: Compound was tested for hepatoprotective activity against D-GalN-induced cytotoxicity in primary cultured rat hepatocytes at 100 uM dose. The conditions noted are these: Hepatocyte.
Assay [4] is filed under the species Rattus norvegicus. As to the kind of experiment: Compound was tested for hepatoprotective activity against D-GalN-induced cytotoxicity in primary cultured rat hepatocytes at 3 uM dose. The conditions noted are these: Hepatocyte.
Assay [5] is filed under the species Rattus norvegicus. In words: Compound was tested for antioxidative activity using TBA method at a concentration of 200 ug/mL.
The species named for assay [6] is Rattus norvegicus. In words: Compound was tested for antioxidative activity using TBA method at a concentration of 200 ug/ml.
The species entered for assay [7] is Rattus norvegicus. As to the kind of experiment: Compound was tested for O2- scavenging activity using NBT method at a concentration of 20 ug/ml.
The species entered for assay [8] is Rattus norvegicus. In words: Compound was tested for O2- scavenging activity using NBT method at a concentration of 20 ug/mL.

`OC[C@@]1(O)CO[C@@H](OC[C@H]2O[C@@H](O[C@H](CCCCc3ccc(O)cc3)CCc3ccc(O)cc3)[C@H](O)[C@H](O)[C@H]2O)[C@@H]1O`: the inhibition at 30 µM in the assay listed under Rattus norvegicus [1] worked out at 43.9%. Moreover, in the assay listed under Rattus norvegicus [2], the inhibition at 10 µM was found to be 38.4%. Besides, in the assay filed under Rattus norvegicus [3], the inhibition at 100 µM came out at 55.3%. The inhibition at 3 µM in the assay listed under Rattus norvegicus [4] was 28.3%.

Compound `Cc1c(C)c2c(c(C)c1O)CC[C@@](C)(CCC[C@H](C)CCC[C@H](C)CCCC(C)C)O2` [ALPHA-TOCOPHEROL] came in with an Inhibition in the assay listed under Rattus norvegicus [5] of 56.7%.

In the case of `OC[C@H]1O[C@@H](O[C@@H](CCc2ccc(O)cc2)C[C@H](O)CCc2ccc(O)cc2)[C@H](O)[C@H](O)[C@H]1O`, in the assay filed under Rattus norvegicus [6], the Inhibition stood at 56.3%. In the assay listed under Rattus norvegicus [1], the inhibition at 30 µM is 27.3%. For the same compound, the inhibition in the assay filed under Rattus norvegicus [7] was determined as 1%. Moreover, in the assay listed under Rattus norvegicus [2], the inhibition at 10 µM came out at 14.1%. Further, in the assay filed under Rattus norvegicus [3], the inhibition at 100 µM was 74.7%. Besides, the inhibition at 3 µM in the assay listed under Rattus norvegicus [4] was 16.2%.

Take `COc1cc([C@H]2c3c(cc(OC)c(O)c3OC)C[C@@H](CO)[C@@H]2CO[C@H]2O[C@@H](CO)[C@@H](O)[C@H](O)[C@@H]2O)cc(OC)c1O`: in the assay listed under Rattus norvegicus [1], the inhibition at 30 µM stood at 24.1%. Besides, the Inhibition in the assay filed under Rattus norvegicus [5] was 96.8%. For the same compound, in the assay filed under Rattus norvegicus [2], the inhibition at 10 µM was 24.8%. Also, the inhibition in the assay filed under Rattus norvegicus [8] was determined as 67.3%. The inhibition at 100 µM in the assay listed under Rattus norvegicus [3] came out at 26.9%. Moreover, the inhibition at 3 µM in the assay filed under Rattus norvegicus [4] stood at 22.3%.

Consider `C[C@@H](CCc1ccc(O)cc1)O[C@@H]1O[C@H](CO[C@@H]2O[C@@H](CO)[C@H](O)[C@H]2O)[C@@H](O)[C@H](O)[C@H]1O`, for which, in the assay filed under Rattus norvegicus [1], the inhibition at 30 µM came to 9.6%. In addition, the inhibition at 10 µM in the assay filed under Rattus norvegicus [2] was determined as 3.6%. Further, the inhibition in the assay filed under Rattus norvegicus [8] was determined as 4%. In addition, in the assay filed under Rattus norvegicus [3], the inhibition at 100 µM is 5.4%. Further, in the assay listed under Rattus norvegicus [4], the inhibition at 3 µM is 10.1%.

In the case of `C[C@H](CCc1ccc(O)cc1)O[C@@H]1O[C@H](CO[C@@H]2OC[C@](O)(CO)[C@H]2O)[C@H](O)[C@@H](O)[C@H]1O`, the inhibition at 30 µM in the assay listed under Rattus norvegicus [1] was 2.1%. In the assay listed under Rattus norvegicus [5], this compound came in with an Inhibition of 93.5%. Besides, the inhibition at 10 µM in the assay listed under Rattus norvegicus [2] is -1.6%. The inhibition in the assay listed under Rattus norvegicus [8] was determined as 1.8%. For the same compound, in the assay listed under Rattus norvegicus [3], the inhibition at 100 µM is -2.3%. Moreover, the inhibition at 3 µM in the assay filed under Rattus norvegicus [4] came out at 1.4%.

As for `COc1cc(C(C)(C)C)c(O)c(C(C)(C)C)c1`, the Inhibition in the assay filed under Rattus norvegicus [5] turned out to be 88%.

Take `C[C@H](CCc1ccc(O)cc1)O[C@@H]1O[C@H](CO)[C@@H](O)[C@H](O)[C@H]1O`: the inhibition at 30 µM in the assay filed under Rattus norvegicus [1] turned out to be 4.9%. Moreover, the inhibition at 10 µM in the assay listed under Rattus norvegicus [2] amounted to 10.1%. Besides, the inhibition at 100 µM in the assay listed under Rattus norvegicus [3] is -0.8%. For the same compound, the inhibition at 3 µM in the assay filed under Rattus norvegicus [4] was 4.7%.

Turning to `OC[C@H]1O[C@@H](O[C@@H](CCc2ccc(O)cc2)C[C@@H](O)CCc2ccc(O)cc2)[C@H](O)[C@H](O)[C@H]1O`, the Inhibition in the assay listed under Rattus norvegicus [6] stood at 61.8%. The inhibition at 30 µM in the assay filed under Rattus norvegicus [1] came to 21.7%. For the same compound, the inhibition in the assay filed under Rattus norvegicus [7] was found to be 1.8%. Further, the inhibition at 10 µM in the assay filed under Rattus norvegicus [2] was 7.4%. The inhibition at 100 µM in the assay filed under Rattus norvegicus [3] turned out to be 37.4%. Also, the inhibition at 3 µM in the assay listed under Rattus norvegicus [4] came to 9.9%.

`Cc1cc(C(C)(C)C)c(O)c(C(C)(C)C)c1` [BUTYLATED HYDROXYTOLUENE] yielded an Inhibition in the assay filed under Rattus norvegicus [5] of 97%.

The compound `O=C1c2c(O)cc(O)cc2O[C@H](c2ccc(O)c(O)c2)[C@H]1O` [(+)-TAXIFOLIN] registered an Inhibition in the assay listed under Rattus norvegicus [5] of 37%. Moreover, in the assay filed under Rattus norvegicus [8], the inhibition came out at 93.8%.

As for `C[C@H](CCc1ccc(O)cc1)O[C@@H]1O[C@H](CO[C@@H]2O[C@H](CO)[C@@H](O)[C@@H]2O)[C@H](O)[C@@H](O)[C@H]1O`, the inhibition at 30 µM in the assay listed under Rattus norvegicus [1] stood at 7.5%. The compound also returned an Inhibition in the assay filed under Rattus norvegicus [5] of 98.2%. In the assay listed under Rattus norvegicus [2], the inhibition at 10 µM was found to be 6.2%. The inhibition in the assay filed under Rattus norvegicus [8] stood at 5.1%. Further, the inhibition at 100 µM in the assay listed under Rattus norvegicus [3] was 6.8%. For the same compound, in the assay filed under Rattus norvegicus [4], the inhibition at 3 µM stood at 3.4%.

As for `COc1cc([C@@H]2c3c(cc(OC)c(O)c3OC)C[C@H](CO)[C@H]2CO[C@H]2O[C@@H](CO)[C@@H](O)[C@H](O)[C@@H]2O)cc(OC)c1O`, the inhibition at 30 µM in the assay listed under Rattus norvegicus [1] was found to be 10.5%. This compound had an Inhibition in the assay filed under Rattus norvegicus [5] of 87.2%. In addition, the inhibition at 10 µM in the assay listed under Rattus norvegicus [2] came to 7.6%. For the same compound, in the assay filed under Rattus norvegicus [8], the inhibition amounted to 58.8%. The inhibition at 100 µM in the assay listed under Rattus norvegicus [3] came to 28.9%. For the same compound, the inhibition at 3 µM in the assay filed under Rattus norvegicus [4] is 8.3%.

Consider `C[C@@H](CCc1ccc(O)cc1)O[C@@H]1O[C@H](CO[C@@H]2OC[C@](O)(CO)[C@H]2O)[C@H](O)[C@@H](O)[C@H]1O`, for which the inhibition at 30 µM in the assay listed under Rattus norvegicus [1] is 0.7%. The Inhibition in the assay listed under Rattus norvegicus [5] was 21.8%. Also, the inhibition at 10 µM in the assay filed under Rattus norvegicus [2] stood at 1.7%. The inhibition in the assay filed under Rattus norvegicus [8] worked out at 10.8%. In the assay filed under Rattus norvegicus [3], the inhibition at 100 µM was -4.5%. Also, in the assay listed under Rattus norvegicus [4], the inhibition at 3 µM came out at 3.6%.

Turning to `Oc1ccc([C@H]2Oc3cc(OC4OCC(O)C(O)C4O)cc(O)c3C[C@@H]2O)cc1O` (stereo partly specified), the inhibition at 30 µM in the assay filed under Rattus norvegicus [1] was found to be 8.5%. Further, the Inhibition in the assay filed under Rattus norvegicus [5] was found to be 50.1%. In addition, the inhibition at 10 µM in the assay listed under Rattus norvegicus [2] came out at 8.8%. The inhibition in the assay filed under Rattus norvegicus [8] stood at 92.9%. For the same compound, in the assay listed under Rattus norvegicus [3], the inhibition at 100 µM is 9.4%. In addition, in the assay filed under Rattus norvegicus [4], the inhibition at 3 µM came to 4.8%.

The values are drawn from ChEMBL document CHEMBL1130638, “Hepatoprotective, superoxide scavenging, and antioxidative activities of aromatic constituents from the bark of Betula platyphylla var. japonica” (1998).
